The test deals with T1, hVR1 (Homo sapiens, UniProt Q8NER1).
T1 construct: expressed in transfected cells; host or cells: CHO K1 cells (ECACC), stably transfected
Briefly: Functional test on VR1, FLIPR Ca2+ influx in transfected CHO K1 cells, capsaicin. Type of test: cell-based, human being. Also noted: key to Ki (human being) [nM] Cap: agonist / partial agonist / no effect: AG=agonist; pAG=partial agonist; NE=no effect. The conditions noted are these: for Ki: capsaicin (Cap), includes values given in brackets after pAG, read-out: Ki (human being) [nM] Cap. From the text: In the process, the Ca^2+ influx is quantified in the FLIPR assay with the aid of a Ca^2+-sensitive dye (type Fluo-4, Molecular Probes Europe BV, Leiden, the Netherlands) in a fluorescent imaging plate reader (FLIPR, Molecular Devices, Sunnyvale, USA), as described hereinafter.
II. Functional Tests Carried Out on the Vanilloid Receptor (VR1)
The agonistic or antagonistic effect of the substances to be tested on the vanilloid receptor 1 (VR1) can also be determined using the following assay. In this assay, the influx of Ca^2+ through the channel is quantified with the aid of a Ca^2+-sensitive dye (type Fluo-4, Molecular Probes Europe BV, Leiden, the Netherlands) in a fluorescent imaging plate reader (FLIPR, Molecular Devices, Sunnyvale, USA).
Chinese hamster ovary cells (CHO K1 cells, European Collection of Cell Cultures (ECACC) United Kingdom) are stably transfected with the VR1 gene. For functional testing, these cells are plated out on poly-D-lysine-coated black 96-well plates having a clear base (BD Biosciences, Heidelberg, Germany) at a density of 25,000 cells/well. The cells are incubated overnight at 37° C. and 5% CO2 in a culture medium (Ham's F12 nutrient mixture, 10% by volume of FCS (foetal calf serum), 18 μg/ml of L-proline). The next day the cells are incubated with Fluo-4 (Fluo-4 2 μM, 0.01% by volume of Pluronic F127, Molecular Probes in HBSS (Hank's buffered saline solution), Gibco Invitrogen GmbH, Karlsruhe, Germany) for 30 minutes at 37° C. Subsequently, the plates are washed three times with HBSS buffer and after further incubation for 15 minutes at RT used for Ca^2+ measurement in a FLIPR assay. The Ca^2+-dependent fluorescence is measured before and after the addition of the substances to be tested (λex wavelength=488 nm, λem=540 nm). Quantification is carried out by measuring the highest fluorescence intensity (FC, fluorescence counts) over time.
The FLIPR protocol consists of 2 substance additions. First the compounds to be tested (10 μM) are pipetted onto the cells and the Ca^2+ influx is compared with the control (capsaicin 10 μM) (% activation based on the Ca^2+ signal after the addition of 10 μM of capsaicin). After 5 minutes' incubation, 100 nM of capsaicin are applied and the Ca^2+ influx is also determined.
Desensitising agonists and antagonists led to suppression of the Ca^2+ influx. The % inhibition is calculated compared to the maximum achievable inhibition with 10 μM of capsaicin.
Starting from the percentage displacement caused by different concentrations of the compounds to be tested of general formula I, IC50 inhibitory concentrations which cause a 50-per cent displacement of capsaicin were calculated. Ki values for the test substances were obtained by conversion by means of the Cheng-Prusoff equation (Cheng, Prusoff; Biochem. Pharmacol. 22, 3099-3108, 1973).
The affinity of the compounds according to the invention for the vanilloid receptor 1 (VR1/TRPV1 receptor) was determined as described hereinbefore (pharmacological methods I and II respectively).

SMILES strings stand for the structures.

T1 sequence (Q8NER1 whole entry): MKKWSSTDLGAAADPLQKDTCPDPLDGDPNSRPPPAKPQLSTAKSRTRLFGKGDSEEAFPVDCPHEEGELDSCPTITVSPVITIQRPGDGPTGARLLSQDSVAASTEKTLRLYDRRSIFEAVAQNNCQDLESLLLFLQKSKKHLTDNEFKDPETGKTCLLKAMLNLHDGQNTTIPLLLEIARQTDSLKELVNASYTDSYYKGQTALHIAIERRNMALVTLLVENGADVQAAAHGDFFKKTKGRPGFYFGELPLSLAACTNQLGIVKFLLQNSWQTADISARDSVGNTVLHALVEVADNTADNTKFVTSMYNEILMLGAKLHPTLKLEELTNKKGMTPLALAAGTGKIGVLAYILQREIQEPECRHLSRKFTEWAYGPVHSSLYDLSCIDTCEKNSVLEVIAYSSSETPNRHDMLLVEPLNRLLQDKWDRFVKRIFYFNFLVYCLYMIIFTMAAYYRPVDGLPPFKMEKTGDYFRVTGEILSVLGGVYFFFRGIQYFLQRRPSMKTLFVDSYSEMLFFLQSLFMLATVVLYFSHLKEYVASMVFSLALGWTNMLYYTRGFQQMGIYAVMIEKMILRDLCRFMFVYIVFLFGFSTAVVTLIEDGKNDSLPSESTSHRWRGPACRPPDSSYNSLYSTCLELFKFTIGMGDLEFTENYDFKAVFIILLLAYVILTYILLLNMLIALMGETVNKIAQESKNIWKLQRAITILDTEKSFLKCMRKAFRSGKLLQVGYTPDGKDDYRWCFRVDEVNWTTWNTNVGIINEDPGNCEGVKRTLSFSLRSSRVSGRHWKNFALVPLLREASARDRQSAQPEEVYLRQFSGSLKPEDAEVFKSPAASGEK

As usually defined, the Ki is the equilibrium dissociation constant of an inhibitor or competing ligand from its target. Turning to `CC(C(=O)NCc1cc(C(F)(F)F)nn1-c1cccc(Cl)c1)c1cccc2c1CCCC2` (stereo not drawn) [Example 2, N-((1-(3-chlorophenyl)-3-(trifluoromethyl)-1H-pyrazol-5-yl)methyl)-2-(5,6,7,8-tetrahydronaphthalen-1-yl)propanamide], the Ki was determined as 6.6 nM.

In the case of `CC(C(=O)NCc1cc(C(F)(F)F)nn1-c1cccc(Cl)c1)c1ccc2c(c1)C(=O)CC2` (stereo not drawn) [Example 6, N-((1-(3-chlorophenyl)-3-(trifluoromethyl)-1H-pyrazol-5-yl)methyl)-2-(3-oxo-2,3-dihydro-1H-inden-5-yl)propanamide], the Ki was determined as 12.8 nM.

`CC(C(=O)NCc1cc(C(C)(C)C)nn1-c1cccc(Cl)c1)c1cccc2[nH]ccc12` (stereo not drawn) [Example 25, N-((3-tert-butyl-1-(3-chlorophenyl)-1H-pyrazol-5-yl)methyl)-2-(1H-indol-4-yl)propanamide]: the Ki amounted to 5.5 nM.

With `CC(C(=O)NCc1cc(C(F)(F)F)nn1-c1cccc(Cl)c1)c1cccc2c1ccn2C` (stereo not drawn) [Example 26, N-((1-(3-chlorophenyl)-3-(trifluoromethyl)-1H-pyrazol-5-yl)methyl)-2-(1-methyl-1H-indol-4-yl)propanamide], the Ki worked out at 21.5 nM.

Turning to `CC(C(=O)NCc1cc(C(F)(F)F)nn1-c1cccc(Cl)c1)c1ccc2ncsc2c1` (stereo not drawn) [Example 42, 2-(benzo[d]thiazol-6-yl)-N-((1-(3-chlorophenyl)-3-(trifluoromethyl)-1H-pyrazol-5-yl)methyl)propanamide], the Ki came to 4 nM.

`CC(C(=O)NCc1cc(C(F)(F)F)nn1-c1cccc(Cl)c1)c1ccc2nc(N)sc2c1` (stereo not drawn) [Example 43, 2-(2-aminobenzo[d]thiazol-6-yl)-N-((1-(3-chlorophenyl)-3-(trifluoromethyl)-1H-pyrazol-5-yl)methyl)propanamide]: the “Ki (human being) [nM] Cap: agonist / partial agonist / no effect” value (shortened to “Ki … agonist / partial agonist / no effect”) is listed as “pAG” and the Ki amounted to 22.9 nM.

As to `Cc1cc2c(C(C)C(=O)NCc3cc(C(F)(F)F)nn3-c3cccc(Cl)c3)cccc2c(C)n1` (stereo not drawn) [Example 67, N-((1-(3-chlorophenyl)-3-(trifluoromethyl)-1H-pyrazol-5-yl)methyl)-2-(1,3-dimethylisoquinolin-5-yl)propanamide], the Ki came to 5.2 nM.

In the case of `CC(C(=O)NCc1cc(C(F)(F)F)nn1-c1cccc(Cl)c1)c1ccc2cccnc2c1` (stereo not drawn) [Example 72, N-((1-(3-chlorophenyl)-3-(trifluoromethyl)-1H-pyrazol-5-yl)methyl)-2-(quinolin-7-yl)propanamide], the Ki is 0.5 nM.

Regarding `CC(C)(C)c1cc(CNC(=O)Nc2cccc3c2CCC3)n(-c2cccc(Cl)c2)n1` [Example 78, 1-((3-tert-butyl-1-(3-chlorophenyl)-1H-pyrazol-5-yl)methyl)-3-(2,3-dihydro-1H-inden-4-yl)urea], the “Ki … agonist / partial agonist / no effect” value is given as “pAG” and the Ki turned out to be 2.4 nM.

On to `CC(C)(C)c1cc(CNC(=O)Nc2cccc3ccncc23)n(-c2cccc(Cl)c2)n1` [Example 108, 1-((3-tert-butyl-1-(3-chlorophenyl)-1H-pyrazol-5-yl)methyl)-3-(isoquinolin-8-yl)urea], for which the Ki came out at 0.5 nM.

As to `O=C(NCc1cc(C(F)(F)F)nn1-c1ccc(Cl)cc1)Nc1ccc2c(c1)CCC2` [Example 174, 1-((1-(4-chlorophenyl)-3-(trifluoromethyl)-1H-pyrazol-5-yl)methyl)-3-(2,3-dihydro-1H-inden-5-yl)urea], the Ki was found to be 75.8 nM.

As to `O=C(NCc1cc(C(F)(F)F)nn1-c1ccc(F)cc1)Nc1ccc2c(c1)CCC2` [Example 175, 1-(2,3-dihydro-1H-inden-5-yl)-3-((1-(4-fluorophenyl)-3-(trifluoromethyl)-1H-pyrazol-5-yl)methyl)urea], the Ki was determined as 70.2 nM.

Regarding `CC(C)(C)c1cc(CNC(=O)Nc2ccc3c(c2)CCC3)n(-c2cccc(F)c2)n1` [Example 176, 1-((3-tert-butyl-1-(3-fluorophenyl)-1H-pyrazol-5-yl)methyl)-3-(2,3-dihydro-1H-inden-5-yl)urea], the Ki came out at 34 nM.

For `CC(C)(C)c1cc(CNC(=O)Nc2ccc3c(c2)CCC3)n(-c2ccc(F)c(Cl)c2)n1` [Example 177, 1-((3-tert-butyl-1-(3-chloro-4-fluorophenyl)-1H-pyrazol-5-yl)methyl)-3-(2,3-dihydro-1H-inden-5-yl)urea], the Ki is 10.3 nM.

Regarding `COc1ccc(-n2nc(C(F)(F)F)cc2CNC(=O)Nc2ccc3c(c2)CCC3)cc1` [Example 178, 1-(2,3-dihydro-1H-inden-5-yl)-3-((1-(4-methoxyphenyl)-3-(trifluoromethyl)-1H-pyrazol-5-yl)methyl)urea], the Ki is 38.4 nM.

As to `O=C(NCc1cc(C(F)(F)F)nn1-c1ccc(C(F)(F)F)cc1)Nc1ccc2c(c1)CCC2` [Example 179, 1-(2,3-dihydro-1H-inden-5-yl)-3-((3-(trifluoromethyl)-1-(4-(trifluoromethyl)phenyl)-1H-pyrazol-5-yl)methyl)urea], the Ki was found to be 36.3 nM.

For the compound `O=C(NCc1cc(C(F)(F)F)nn1-c1ccc(OC(F)(F)F)cc1)Nc1ccc2c(c1)CCC2` [Example 180, 1-(2,3-dihydro-1H-inden-5-yl)-3-((1-(4-(trifluoromethoxy)phenyl)-3-(trifluoromethyl)-1H-pyrazol-5-yl)methyl)urea], the Ki amounted to 41 nM.

`Cc1ccc(-n2nc(C(F)(F)F)cc2CNC(=O)Nc2ccc3c(c2)CCC3)cc1C` [Example 181, 1-(2,3-dihydro-1H-inden-5-yl)-3-((1-(3,4-dimethylphenyl)-3-(trifluoromethyl)-1H-pyrazol-5-yl)methyl)urea]: the Ki turned out to be 35.9 nM.

Take `CC(C)(C)c1cc(CNC(=O)Nc2ccc3c(c2)CCC3)n(-c2cc(Cl)cc(Cl)c2)n1` [Example 182, 1-((3-tert-butyl-1-(3,5-dichlorophenyl)-1H-pyrazol-5-yl)methyl)-3-(2,3-dihydro-1H-inden-5-yl)urea]: the Ki worked out at 32.8 nM.

Take `CC(C(=O)NCc1cc(C2CC2)nn1-c1cccc(Cl)c1)c1ccc2c(c1)OCO2` (stereo not drawn) [Example 183, 2-(benzo[d][1,3]dioxol-5-yl)-N-((1-(3-chlorophenyl)-3-cyclopropyl-1H-pyrazol-5-yl)methyl)propanamide]: the Ki came to 28.4 nM.

Consider `CC(C(=O)NCc1cc(C(F)(F)F)nn1C1CCCCC1)c1ccc2c(c1)OCCO2` (stereo not drawn) [Example 184, N-((1-cyclohexyl-3-(trifluoromethyl)-1H-pyrazol-5-yl)methyl)-2-(2,3-dihydrobenzo[b][1,4]dioxin-6-yl)propanamide], for which the Ki came out at 66.2 nM.

Take `CC(C)(C)c1cc(CNC(=O)Nc2cccc3c2OCC3)n(-c2cccc(Cl)c2)n1` [Example 185, 1-((3-tert-butyl-1-(3-chlorophenyl)-1H-pyrazol-5-yl)methyl)-3-(2,3-dihydrobenzofuran-7-yl)urea]: the “Ki … agonist / partial agonist / no effect” value is “pAG” and the Ki was determined as 39.7 nM.

As for `CC(C)(C)c1cc(CNC(=O)Nc2ccc3c(c2)OC(F)(F)O3)n(-c2cccc(Cl)c2)n1` [Example 187, 1-((3-tert-butyl-1-(3-chlorophenyl)-1H-pyrazol-5-yl)methyl)-3-(2,2-difluorobenzo[d][1,3]dioxol-5-yl)urea], the “Ki … agonist / partial agonist / no effect” value was “AG”.

In the case of `CC(C)(C)c1cc(CNC(=O)Cc2ccc3c(c2)OCCO3)n(-c2cccc(Cl)c2)n1` [Example 188, N-((3-tert-butyl-1-(3-chlorophenyl)-1H-pyrazol-5-yl)methyl)-2-(2,3-dihydrobenzo[b][1,4]dioxin-6-yl)acetamide], the Ki is 5.9 nM.

For the origin of these results see patent US8334315B2, “Substituted aromatic carboxamide and urea derivatives as vanilloid receptor ligands” (Gruenenthal GmbH, priority 2009, dated 2012).
